According to patent publication US5770573A, “CS-1 peptidomimetics, compositions and methods of using the same” (Cytel Corporation, priority 1995, dated 1998):
Square brackets hold non-standard residues; d marks the D form. Peptide text beside a SMILES is read from it. * marks the point of attachment. Morpholide = C1CN(*)CCO1; PhAc = O=C(Cc1ccccc1)*

Columns and labels:
[1] = test system: delayed-type hypersensitivity murine model; test: Adoptive transfer delayed type hypersensitivity in mice (oxazolone); format: in vivo, mouse; settings: for Percent Inhibition of post-challenge swelling: expanded study, versus vehicle alone, 6 mg/kg/day s.c. pump, 24 hours
Procedure: An adoptive transfer delayed-type hypersensitivity murine model has been developed using splenic T cells primed to oxazolone. This model is described in Elices et al., Clin. Exp. Rheum., 11 (Suppl. 8):577-580 (1993), whose procedures were followed here.
Thus, BALB/c mice were shaved on the belly and painted (50 μl on the belly and 5 μl on each paw) with three percent oxazolone in acetone/olive oil (4:1) at days zero and 1. At day 5, the mice were sacrificed, their spleens removed, and splenic T cells were obtained via nylon wool columns.
Normal saline or saline containing 25×10^6 /animal of the oxazolone-immune T cells were separately injected into naive mice. The mice were then challenged by painting 10 μl of 2 percent oxazolone onto one ear each. All procedures were carried out under sterile conditions and in endotoxin-free buffers.
Prior to challenge or saline injection, the mice were implanted with pumps that subcutaneously administered normal saline, normal saline containing the compound, Compound ID No. 896.52, N-phenylacetyl-Leu-Asp-Phe-D-Pro-NH2, or normal saline containing a compound with a scrambled sequence continually at 6 mg/kg/day for a 24-hour time period. The swelling diameter at the site of challenge or saline injection was measured with a microcaliper 24 hours thereafter.
An expanded study was carried out as described above except that a scrambled compound control was not used as a control for further inhibitor compounds of Table 1 with larger groups of mice. Statistical analyses were carried out versus injection of vehicle alone.

[2] = test system: EAE in SJL/J mice; test: Experimental autoimmune encephalomyelitis in mice; format: in vivo; settings: 1 mg/mouse i.p. at days 8 and 9; versus scrambled control compound
Procedure: EAE was induced in female SJL/J mice (8 to 14 weeks old) by immunization on day zero with 50 μg of a compound corresponding to positions 139-151 of PLP emulsified in a 1:1 mixture of PBS and complete Freund's adjuvant (CFA). Each mouse was injected with 0.2 ml of the adjuvant emulsion subcutaneously (s.c.) at two sites in the hind flank. All mice received 10^7 killed Bordetella pertussis units in 100 μl were injected intravenously 24 to 72 hours later.
Mice were observed daily, beginning at day 8 for clinical signs of EAE, and disease was scored on a scale of 0-5 as: 0=no disease; 1=floppy tail; 2=moderate hind limb weakness; 3=paraparesis; 4 =paraplegis with moderate forelimb weakness; 5 =qualdriplegis or premoribund state.
The inhibitor compound, Compound ID No. 896.52, N-phenylacetyl-Leu-Asp-Phe-D-Pro-NH2 was administered intraperitoneally at 1 mg/mouse in 0.2 ml of incomplete Freund's adjuvant at days 8 and 9. A compound having a scrambled sequence [N-phenylacetyl-Asp-Leu-Phe-D-Pro-NH2 ] was similarly administered to serve as a control.
Summed or averaged scores for clinical signs were plotted vs. time. The area under the resulting curves was calculated between day 8 and day 35 to calculate percentage inhibition of EAE by an inhibitor compound. The percent inhibition was calculated as follows:
%Inhibition=100-(Area of inhibitor compound+control area)×100

[3] = test system: asthmatic sheep; test: Treatment of asthmatic sheep (Ascaris suum antigen); format: in vivo
Procedure: Six asthmatic sheep were treated in a double blind cross-over study. […] This study was carried out generally as described in Abraham et al., J. Clin. Invest., 93:776-787 (1994).
The inhibitor compound used here was Compound ID No. 896.52, N-phenylacetyl-Leu-Asp-Phe-D-Pro-NH2, with a control compound that comprised the previously described compound having the same residues in a scrambled sequence. The vehicle for the nebulized compounds was phosphate-buffered saline. The compounds were administered at a dose of 1 mg/kg each, twice a day for three days prior to challenge, as well as 0.5 hours prior to and four hours post challenge on day 4. Because this was a crossover study, each animal received one or the other treatment, followed by a rest and then the other treatment. Each animal therefore served as its own control.
Post challenge airway responsiveness was also assayed. Here, specific lung resistance, SRL, returned to baseline values 24 hours after challenge, however, the sheep were hyperresponsive to inhaled carbachol at that time.

[4] = test system: asthmatic rabbits; test: Treatment of asthmatic rabbits (house dust mite antigen challenge); format: in vivo, rabbit
Procedure: Six New Zealand white rabbits were immunized with house dust mite antigen from birth through four months of age. Upon immunization, three rabbits received a single nebulizer administration of the inhibitor compound, Compound ID No. 1051.01, N-phenylacetyl-Leu-Asp-Phe-morpholinamide in aqueous 50 percent ethanol as diluent in an amount of 100 mg/kg, and the other three received diluent alone. All of the rabbits were challenged with house dust mite antigen about 15-30 minutes after administration of the compound, with those animals not receiving compound serving as controls.
Once immunized and challenged, the inflammatory state subsides to a basal level within about three weeks. The three animals used as controls were thereafter used as subjects for receipt of an inhibitor compound, and the three rabbits that initially received the compound can serve as controls.
Such a crossover study was done here. Thus, the three initial control rabbits were treated with the above inhibitor compound in the above diluent at a time more than three weeks after the above study, and the three previous recipients of the compound were administered the diluent alone. All six were than challenged again.
Initial pulmonary function, measured by dynamic compliance (Cdyn) and lung resistance (RL) , and bronchoalveolar lavage (BAL) to obtain an effector cell count, here eosinophils, were conducted prior to administration of the compound or diluent for both portions of this crossover study. Similar assays were then taken one-half hourly after challenge for six hours (early phase allergic reaction) and at 24 hours after challenge (late stage allergic reaction) for both portions of this study.
These studies were conducted as described by W. J. Metzger in CRC Handbook of Late Phase Reactions, W. Dorsch, ed., Chapter 35, CRC Press, Boca Raton, Fla. (1990) pages 347-362.
The results of this study for the pulmonary function parameters are shown in FIG. 4A and FIG. 4B, in which data for the challenged, inhibitor compound-treated animals are shown as open circles and data for the challenged, untreated, control animals are shown in blackened circles.

[5] = biological target: T1, VLA-4 (Homo sapiens, UniProt P05556+P13612); test: In vitro binding inhibition of 51Cr-labeled Jurkat cells to solid phase-bound CS-1 compound (SEQ ID NO:1); format: cell-based; design: inflammatory cells that contain the VLA-4 receptor [Jurkat cells; host or cells: Jurkat (human T lymphoblastic line); settings: for Relative Potency: binding inhibition potency relative to standard compound of SEQ ID NO:3 = 1 (normalized IC50), about one-tenth or less assigned zero
How it was run: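 51Cr-labeled human Jurkat cells were preincubated with compound 30 min at about 22° C, then allowed to bind to wells coated with CS-1 peptide or CS-1-OVA for 30 min at 37° C. After washing, bound cells were lysed with SDS and counted. IC50 is the concentration halving binding, normalized to SEQ ID NO: 3.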

[6] = test system: Jurkat cells; test: Binding of Jurkat cells to frozen human RA synovial sections; format: cell-based; settings: 500 μg/ml
Procedure: Binding studies were carried out using the Jurkat T cell line and frozen RA synovial sections. […] Stimulated MOLT-4 cells behaved similarly.
The absolute value of that IC50 value is about 0.5 μmolar.

[7] = test system: immune T cells; settings: about 50 μg/ml admixed with immune T cells; cited from earlier work
[8] = biological target: T1, VLA-4; settings: cited from earlier work
[9] = 100 mg/kg nebulizer, late (24 hours)

T1 sequence (P13612 34-1032): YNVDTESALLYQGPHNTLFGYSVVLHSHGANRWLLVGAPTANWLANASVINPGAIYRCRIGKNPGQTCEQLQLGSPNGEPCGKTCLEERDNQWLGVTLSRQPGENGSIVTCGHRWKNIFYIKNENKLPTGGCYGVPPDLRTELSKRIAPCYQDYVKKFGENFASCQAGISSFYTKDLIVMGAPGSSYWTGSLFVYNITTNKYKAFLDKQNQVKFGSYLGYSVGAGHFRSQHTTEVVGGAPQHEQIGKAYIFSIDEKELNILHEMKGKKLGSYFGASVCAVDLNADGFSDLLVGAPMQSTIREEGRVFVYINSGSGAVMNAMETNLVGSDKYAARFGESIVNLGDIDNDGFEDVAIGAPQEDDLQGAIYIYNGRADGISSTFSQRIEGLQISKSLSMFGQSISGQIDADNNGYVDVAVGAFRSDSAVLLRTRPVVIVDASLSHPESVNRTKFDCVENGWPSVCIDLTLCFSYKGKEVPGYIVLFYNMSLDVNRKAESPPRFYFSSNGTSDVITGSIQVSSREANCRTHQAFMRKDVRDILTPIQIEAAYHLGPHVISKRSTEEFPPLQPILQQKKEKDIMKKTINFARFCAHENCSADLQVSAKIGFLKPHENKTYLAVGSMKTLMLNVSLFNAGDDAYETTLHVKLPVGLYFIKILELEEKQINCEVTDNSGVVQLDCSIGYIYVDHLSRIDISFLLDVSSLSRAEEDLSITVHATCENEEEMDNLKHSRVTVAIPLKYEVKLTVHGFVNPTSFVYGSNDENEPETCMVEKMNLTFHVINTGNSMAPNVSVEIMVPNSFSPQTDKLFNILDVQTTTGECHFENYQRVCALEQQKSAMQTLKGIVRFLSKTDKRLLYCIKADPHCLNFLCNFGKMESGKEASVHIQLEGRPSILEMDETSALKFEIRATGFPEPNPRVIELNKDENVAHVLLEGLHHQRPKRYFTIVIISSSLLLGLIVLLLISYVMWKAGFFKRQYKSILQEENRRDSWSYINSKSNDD
T1 sequence (P05556 21-798): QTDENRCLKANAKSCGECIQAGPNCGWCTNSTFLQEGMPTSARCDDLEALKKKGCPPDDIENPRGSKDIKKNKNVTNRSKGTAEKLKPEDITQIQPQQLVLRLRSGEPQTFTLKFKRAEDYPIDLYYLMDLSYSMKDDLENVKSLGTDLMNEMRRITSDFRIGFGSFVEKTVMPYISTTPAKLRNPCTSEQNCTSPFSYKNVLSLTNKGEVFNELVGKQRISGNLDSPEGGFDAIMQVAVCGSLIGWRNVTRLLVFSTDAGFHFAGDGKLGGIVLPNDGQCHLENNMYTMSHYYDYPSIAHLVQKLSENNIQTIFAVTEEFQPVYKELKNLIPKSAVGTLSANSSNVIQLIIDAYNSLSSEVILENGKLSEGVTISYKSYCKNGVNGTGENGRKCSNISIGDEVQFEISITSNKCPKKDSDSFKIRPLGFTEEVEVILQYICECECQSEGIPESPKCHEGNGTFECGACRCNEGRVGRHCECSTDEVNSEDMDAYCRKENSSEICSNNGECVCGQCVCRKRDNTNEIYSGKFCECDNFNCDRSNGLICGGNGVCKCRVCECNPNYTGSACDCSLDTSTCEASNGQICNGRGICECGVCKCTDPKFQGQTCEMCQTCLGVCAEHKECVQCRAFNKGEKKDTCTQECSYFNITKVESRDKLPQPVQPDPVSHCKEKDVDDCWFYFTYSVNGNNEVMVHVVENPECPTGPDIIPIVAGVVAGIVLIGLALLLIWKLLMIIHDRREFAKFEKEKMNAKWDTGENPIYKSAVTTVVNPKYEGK

**Q.** For `CC(C)C[C@H](NC(=O)Cc1ccccc1)C(=O)N[C@@H](CC(=O)O)C(=O)N[C@@H](Cc1ccccc1)C(=O)N1CCC[C@@H]1C(N)=O` [896.52] (PhAc-LDF[dP]-NH2), which “swelling at challenge site (initial study, FIG. 5)” value ([1]; 6 mg/kg/day s.c. by implanted pump for 24 hours, versus saline) is on record?
**A.** reduced this type of CS-1/VLA-4-mediated immunoinflammation

**Q.** And the “Percent Inhibition of post-challenge swelling” value (from here on “Percent Inhibition”) [1]?
**A.** 36%

**Q.** What about the “clinical signs of EAE (FIG. 6)” value [2] of the same compound?
**A.** marked improvement in clinical signs

**Q.** And the “PC400, carbachol dosage to increase SRL 4-fold” value ([3]; 24 hours after challenge, pre-challenge about 20-23 BU)?
**A.** about 27 BU

**Q.** What about the “specific lung resistance SRL after challenge (FIG. 7)” value ([3]; nebulized 1 mg/kg twice a day, versus control compound) of the same compound?
**A.** less of a change from baseline specific lung resistance (SRL)

**Q.** For `CC(C)C[C@H](NC(=O)Cc1ccccc1)C(=O)N[C@@H](CC(=O)O)C(=O)N[C@@H](Cc1ccccc1)C(=O)N1CCOCC1` [1051.01] (PhAc-Leu-Asp-Phe-Morpholide), which “% Reduction, RL, Early phase” value ([4]; 100 mg/kg nebulizer, early (2-4 hours)) is on record?
**A.** 80.1%

**Q.** What about the “% Reduction, Cdyn, Early phase” value ([4]; 100 mg/kg nebulizer, early (2-4 hours), versus challenged controls) of the same compound?
**A.** 94.4%

**Q.** And the “% Reduction, Cdyn, Late phase” value [4, 9]?
**A.** 86.6%

**Q.** And the “% Reduction, RL, Late phase” value [4, 9]?
**A.** 82.6%

**Q.** And the “reduction in eosinophils (BAL count)” value ([4]; after 24 hours, versus untreated, challenged animals)?
**A.** 88.1%

**Q.** What about the “dynamic compliance Cdyn over six hours (FIG. 4A)” value ([4]; six hours after challenge) of the same compound?
**A.** stayed at about the initial value

**Q.** And the “lung resistance RL over six hours (FIG. 4B)” value ([4]; six hours after challenge)?
**A.** remained between the initial value and about 200% of that value

**Q.** What about the “Relative Potency” value [5] of the same compound?
**A.** 709

**Q.** For `CC(C)C[C@H](NC(=O)Cc1ccccc1)C(=O)N[C@@H](CC(=O)O)C(=O)N[C@@H](Cc1ccccc1)C(=O)N1CCC(O)CC1` [1070.02], which “Percent Inhibition” value [1] is on record?
**A.** 29%

**Q.** What about the “Relative Potency” value [5] of the same compound?
**A.** 604

**Q.** Which “Percent Inhibition” value [1] does the source give for `CC(C)C[C@H](NC(=O)Cc1ccccc1)C(=O)N[C@@H](CC(=O)O)C(=O)N[C@@H](Cc1ccccc1)C(=O)N1CCN(CC(=O)O)CC1` [1111.06] here?
**A.** 30%

**Q.** And the “Relative Potency” value [5]?
**A.** 2600

**Q.** For `CC[C@H](C)[C@H](NC(=O)[C@H](CCC(=O)O)NC(=O)[C@@H]1CCCN1C(=O)CN)C(=O)N[C@@H](CC(C)C)C(=O)N[C@@H](CC(=O)O)C(=O)N[C@H](C(=O)N1CCC[C@H]1C(=O)N[C@@H](CO)C(=O)N[C@H](C(=O)O)[C@@H](C)O)C(C)C` [Compound ID No. 872.01, GPEILDVPST] (H-GPEILDVPST-OH), which “inhibition of Jurkat cell adhesion to RA synovial sections” value [6] is on record?
**A.** could be inhibited

**Q.** And the “abrogation of transferred immune response” value [7]?
**A.** could abrogate a transferred immune response

**Q.** Which “VLA-4 binding inhibition compared in words” value ([5]; compared with standard 10-mer of SEQ ID NO:3) does the source give for `CC(C)C[C@H](NC(=O)[C@@H](N)Cc1ccccc1)C(=O)N[C@@H](CC(=O)O)C(=O)N[C@@H](Cc1ccccc1)C(=O)N1CCC[C@@H]1C(N)=O` [Compound ID No. 1092.01] (H-FLDF[dP]-NH2) here?
**A.** binding inhibition better than that of the compound of SEQ ID NO:3

**Q.** For Leu-Asp-Val [LDV], which “affinity of VLA-4 binding relative to native CS-1 25-mer” value [8] is on record?
**A.** at least two orders of magnitude lower affinity
